According to patent US10814006B2, “Fluorescent prodrugs” (UNIVERSITY OF IOWA RESEARCH FOUNDATION, priority 2015, dated 2020):
Entries after “also recorded” stand apart in the source; their conditions may differ. Read-outs that look alike come from different tables or passages of the source.

Experiments:
[1] = system: Jurkat cells; experiment: Proliferation assay, Jurkat cells (CellQuantiBlue); type: cell-based; settings: 72 hours; for IC50: Jurkat cells, QB assay
Protocol: [Worded in the source for another cell line; this cell line is reported under the same test.] (§1) To assess K562 proliferation, 10000 cells/well were added to 96-well plates in 100 μL K562 media in the presence of test compounds. Similarly, experiments with Daudi cells were initiated at 5000 cells/well and RPMI8226 cells initiated at 6000 cells/well. The cell concentrations were determined by prior dose response experiments to maximize proliferation rates. Cells were allowed to proliferate for 72 hours. During the last 2 hours, cells were labeled with 10 μL of CellQuantiBlue reagent and scanned with a Victor plate reader.

[2] = system: primary human gamma delta T cells (Vγ9Vδ2 T cells); settings: cited from earlier work
[3] = system: K562 cells; experiment: Proliferation assay, K562 cells (CellQuantiBlue); type: cell-based; settings: 72 hours; for IC50: K562 cells, QB assay
Protocol: (§2) K562 cells were cultured in fresh K562 media (RPMI-1640, 10% heat-inactivated Fetalclone III, 1× penicillin/streptomycin). Daudi and RPMI-8226 cells were cultured in fresh Daudi/RPMI media (RPMI-1640, 10% heat-inactivated FBS, 1× penicillin/streptomycin). Gamma delta T cells were cultured as described previously. Briefly, cells were expanded from peripheral blood mononuclear cells in fresh T cell media (RPMI-1640, 10% heat-inactivated FBS, 1× HEPES, pyruvate, non-essential amino acids, penicillin/streptomycin, beta-mercaptoethanol) and added to 6-well plates. Cells were stimulated with test compounds for three days at concentrations indicated in the text. Cells were washed twice then cultured for another eleven days after compound removal. Human interleukin 2 (5 ng/mL) was supplemented every three days. Experiments were performed at least three times independently using at least two different blood donors.
as §1

[4] = system: Daudi cells; experiment: Proliferation assay, Daudi cells (CellQuantiBlue); type: cell-based; settings: 72 hours; for IC50: Daudi cells, QB assay
Protocol: as §2, §1

[5] = system: RPMI-8226 cells; experiment: Proliferation assay, RPMI-8226 cells (CellQuantiBlue); type: cell-based; settings: 72 hours; for IC50: RPMI-8226 cells, QB assay
Protocol: as §2, §1

[6] = pH dependence of fluorescence intensity; type: physicochemical; settings: aqueous solutions, pH 6 vs pH 3
Excerpt: The use of the MOCCA prodrugs as probes with which to determine rates of biological deprotection (FIG. 4) was examined. All three compounds were readily detected by spectrophotometry with excitation maxima of 360 nm and emission maxima of 410 nm in aqueous solutions. Importantly, the fluorescence intensity of the free MOCCA group was strongly dependent upon pH of the solvent (FIG. 4A), correlating with the expected protonation of the carboxylic acid. At pH 6 the intensity of the free MOCCA group was less than 10% of its intensity at pH 3. At the same time, the fluorescence intensity of the MOCCA prodrugs was not pH dependent. Taken together, the MOCCA prodrugs would be expected to rapidly lose fluorescence intensity during metabolism at neutral pH, as the free MOCCA group is released from the prodrug and remains in the deprotonated form.

[7] = system: primary human gamma delta T cells (Vγ9Vδ2 T cells); experiment: Gamma delta T cell expansion from PBMCs; type: cell-based; settings: for EC50: 72 hours treatment; for gamma delta T cell agonist activity: PBMCs, CD3 and gamma delta TCR surface staining
Protocol: as §2
Total gamma delta TCR was labeled using FITC-anti-human Pan gamma delta TCR antibody and CD3 was labeled using PE-conjugated anti-human CD3 as described.
The MOCCA prodrugs were also evaluated in a functional assay of their ability to stimulate proliferation of primary human gamma delta T cells. Dose response experiments were performed with the experimental compounds—MOCCA-Me-C-HMBP and MOCCA-POM-C-HMBP. POM-Me-C-HMBP, POM2-C-HMBP, Me-C-HMBP, C-HMBP or HMBPP were used as positive controls. Unstimulated cells were used as a negative control. Cells were treated for 72 hours with test compounds, washed, then expanded for 11 additional days prior to quantification to assess proliferation.

[8] = system: K562 cells; experiment: Quantification of cellular uptake in K562 cells; type: cell-based; settings: K562 cells in PBS, 10 μM
Protocol: (§3) Compounds were exposed to PBS, K562 cells in PBS, or 50% pooled human plasma in PBS. K562 cells were used at a concentration of 1 million per mL. The fluorescence was detected using a Victor X5 plate reader with excitation at 355 nm and emissions at 405. Compounds were mixed with each biological matrix to a final concentration of 10 μM on ice. A baseline reading was measured. Compounds were incubated for one hour at 37° C. and subsequent readings were taken every 15 minutes.
The compounds were then used to examine rates of internalization into K562 cells. […] That is, within hours, effectively all of the drug can pass through the cells.

[9] = Plasma metabolism by loss of fluorescence (spectrophotometry); type: in vitro ADME, human
Protocol: as §3
This assay was then adapted to a 384-well-plate format for use in a plate reader equipped with a 355/40 nm excitation filter and a 405/10 nm emission filter. As expected, the fluorescence intensity of MOCCA-Me-C-HMBP in PBS was much higher than that of the free MOCCA group in PBS (FIG. 4B). Additionally, the fluorescence of the free MOCCA group was further reduced when incubated in human plasma (FIG. 4C). […] Therefore, the esterase-mediated hydrolysis of MOCCA-Me-C-HMBP could be readily assessed by quantification of the two-step (release followed by quenching) loss of fluorescence following exposure to various biological matrices.
(§4) The prodrugs and the MOCCA protecting group were stable in PBS (FIG. 5A). […] The half-life was determined to be 7 minutes in this assay. […] In order to confirm that the loss of fluorescence of MOCCA-Me-C-HMBP was indeed due to hydrolysis of the MOCCA-phosphonate ester, the end products were extracted and analyzed by thin layer chromatography. MOCCA-Me-C-HMBP was fully hydrolyzed to yield the free MOCCA group in the presence of human plasma within 40 minutes (FIG. 5D). Loss of the prodrug occurred at the same time as the appearance of the MOCCA free acid.

[10] = Plasma metabolism by thin layer chromatography; type: in vitro ADME; settings: human plasma
Protocol: Compounds were exposed to cells, plasma, media, or PBS as indicated in the text in 100 μL volumes. Compounds were extracted from all biological mixtures using 200 μL of organic solvent containing 95% dichloromethane, 5% ethanol, and 0.25% glacial acetic acid. Extracts were separated by normal phase […] using 95% dichloromethane, 5% ethanol, and 0.25% glacial acetic acid as the mobile phase. Compounds were visualized under UV light.
as §4

[11] = Reference: Hsiao et al., read-out: EC50 for T cell expansion
[12] = dose response curves, read-out: EC50, gamma delta T cell proliferation

In the case of C/C(=C\CCP(=O)(O)O)CO [C-HMBP], the IC50 [1] is given as over 100 µM, the EC50 [2, 11] is given as 4 µM and the IC50 [3] is given as over 100 µM. It also gave an IC50 [4] of over 100 µM and an IC50 [5] of over 100 µM.
In the case of COc1ccc2cc(C(=O)O)c(=O)oc2c1 [MOCCA (1), 7-Methoxy-2-oxo-2H-chromene-3-carboxylic acid], the “cellular toxicity, Jurkat” value ([1]; concentrations up to 100 μM) is reported as “no cellular toxicity”, the IC50 ([1]; Homo sapiens) is reported as over 100 µM and the “fluorescence intensity at pH 6 relative to intensity at pH 3” value [6] is reported as “less than 10%”. For the same molecule, the “cellular toxicity, K562” value ([3]; concentrations up to 100 μM) was “no cellular toxicity”, the IC50 ([3]; Homo sapiens) was over 100 µM and the “cellular toxicity, Daudi” value ([4]; concentrations up to 100 μM) was “no cellular toxicity”. The IC50 ([4]; Homo sapiens) was over 100 µM, the “cellular toxicity, RPMI-8226” value ([5]; concentrations up to 100 μM) was “no cellular toxicity” and the IC50 ([5]; Homo sapiens) was over 100 µM.
Work on COc1ccc2cc(C(=O)OCOP(=O)(CC/C=C(\C)CO)OC)c(=O)oc2c1 (stereo not drawn) [MOCCA-Me—C-HMBP (5)] yielded an IC50 ([1]; Homo sapiens) of over 100 µM, an EC50 ([7]; Homo sapiens, T-cell, 11 additional days expansion, Reference: none, read-out: EC50 for T cell expansion) of 0.018 µM and an EC50 ([7]; Homo sapiens, T-cell, dose response curves, read-out: EC50, gamma delta T cell proliferation) of 0.018 µM. For the same molecule, the “gamma delta T cell agonist activity” value [7] was “functioned as a gamma delta T cell agonist; also recorded: potent gamma delta T cell agonist”, the “increase in activity of the MOCCA protected compound over Me-C-HMBP” value ([7]; ratio of EC50 values) was 1300 fold and the “cellular uptake / cellular metabolism in K562 cells” value [8] was “faster than that of MOCCA-POM-C-HMBP”. The “order of decay kinetics in plasma” value ([9]; 50% human plasma in PBS, spectrophotometry) was 2nd order kinetics, the half-life at 10 μM ([9]; 50% pooled human plasma in PBS, 50% human plasma in PBS, spectrophotometry) was 7 min and the “relative rate of plasma metabolism” value ([9]; human plasma) was “metabolized more rapidly relative to the bulkier MOCCA-POM-C-HMBP”. The IC50 ([3]; Homo sapiens) was over 100 µM, the “time to full hydrolysis to the free MOCCA group” value [10] was at most 40 min and the half-life ([10]; read-out: half-life of enzymatic release) was 7.8 min. For the same molecule, the IC50 ([4]; Homo sapiens) was over 100 µM and the IC50 ([5]; Homo sapiens) was 64 µM.
With COc1ccc2cc(C(=O)OCOP(=O)(CC/C=C(\C)CO)OCOC(=O)C(C)(C)C)c(=O)oc2c1 (stereo not drawn) [MOCCA-POM (9)] the IC50 [1] was 53 µM, the “gamma delta T cell agonist activity” value [7] was “functioned as a gamma delta T cell agonist” and the EC50 [7, 12] was 0.0039 µM. For the same molecule, the IC50 [3] was over 100 µM, the IC50 [4] was 56 µM and the IC50 [5] was 43 µM.
Work on C1CN2CCN1CC2.COP(=O)(O)CC/C=C(\C)CO [Me—C-HMBP (4)] yielded an IC50 [1] of over 100 µM, an EC50 [7, 12] of 23 µM and an IC50 [3] of over 100 µM. The IC50 [4] was over 100 µM and the IC50 [5] was over 100 µM.
For C/C(=C\CCP(=O)(OCOC(=O)C(C)(C)C)OCOC(=O)C(C)(C)C)CO [POM2-C-HMBP (7)], the IC50 [1] is listed as over 100 µM, the EC50 ([2]; published value, unit inferred, read-out: published EC50 value, gamma delta T cell proliferation) is listed as 0.0054 µM and the IC50 [3] is listed as over 100 µM. For the same molecule, the IC50 [4] was 58 µM and the IC50 [5] was 44 µM.
For COP(=O)(CC/C=C(\C)CO)OCOC(=O)C(C)(C)C (stereo not drawn) [POM-Me—C-HMBP], the IC50 [1] is listed as over 100 µM, the “gamma delta T cell agonist activity” value [7] is listed as “not statistically different from that of POM-Me-C-HMBP” and the EC50 [2, 11] is listed as 0.52 µM. The EC50 ([2]; published value, Hsiao et al. 2014, read-out: published EC50, gamma delta T cell proliferation) was 0.5 µM, the IC50 [3] was over 100 µM and the IC50 [4] was over 100 µM. For the same molecule, the IC50 [5] was over 100 µM.
